The text below walks through data of patent US20250092395A1, “A GLUN2D INHIBITOR FOR USE IN THE TREATMENT OR RELAPSE PREVENTION OF A DEPRESSIVE EPISODE” (priority 2022, published 2025).

The target of data set [1] is recombinant GluN2D-containing receptors (Rattus norvegicus, UniProt Q62645). As to conditions: recombinant GluN2D-containing receptors expressed in mammalian cells; cited from earlier work.
Data set [2] deals with SOM-dependent feedback loop, CA1 PCs. Description: Feedback loop-activating protocol (FLAP) in CA1 PCs. It counts as cell-based, mice.
Data set [3] has as its system NMDAR currents in CA1 pyramidal cells. The data set is described as follows: NMDAR currents in voltage-clamp recordings, CA1 pyramidal cells. It counts as cell-based, mice. As to conditions: +40 mV, CNQX, bath application 10 μM. As to the method:
(§1) After 20 min resting time at 35° C., slices were kept at room temperature in aCSF and transferred into the recording chamber (volume approx. 2-3 ml) and continuously superfused with aCSF (rate approx. 5-10 ml/min-). Differential interference contrast video microscopy was used to identify location of CA1 pyramidal neurons (Zeiss Axioskop 2 FS plus, Zeiss Microscopy, Germany). Beside optical identification neurons were classified according to their characteristic firing frequency adaptation to long depolarising current pulses. Borosilicate glass tubes (2.0 mm outer diameter, 0.5 mm wall thickness; Hilgenberg, Germany) were used to pull patch pipettes. Pipettes with a resistance of 5-10 MΩ were used and series resistance of 10-50 MΩ was compensated by bridge balance. Patch pipettes were filled with an internal solution containing (in mM) for EPSP-measurements: 132K-gluconate, 20KCL, 2MgCl2, 10Hepes, 0.1EGTA, 4 Na2ATP, 0.3NaGTP. PH was adjusted to 7.2 with KOH. For current measurements: 135Csgluconate, 2CsCl, 5 QX314, 10 Hepes, 10EGTA, 2MgCl2, 2Na2ATP, 2TEACI, pH was adjusted to 7.2 with HCl. Osmolarity (280-300 mosmol/1) was controlled at the beginning of each experimental day with Osmomat (Gonotec GmbH, Germany).

Data set [4] is described as follows: Side effects in in vivo experiments. On the set-up: species or system mice.
Data set [5] has as its system CA3-CA1 synapse in hippocampal brain slices of CDM mice. Description: aLTP/aLTD inducibility in hippocampal brain slices of CDM mice after in vivo treatment. As to conditions: for stress-induced LTP blockade, reversal: NAB-14 in vivo. As to the method: Animals were preoxygenated in a 100% oxygen atmosphere for 5 min before cervical dislocation and decapitated according to national and institutional guidelines. Transverse 300 […] were cut from hippocampus with a Vibratome (VT1200, Leica, Japan). Slices were prepared in artificial cerebrospinal fluid (ACSF) containing (in mmol/I): 125 NaCl, 25 NaHCO3, 1.25 NaH2PO4, 2.5 KCL, 1 MgCl2, 27 Glucose, 2 CaCl2) bubbled with carbogen (95% O2, 5% CO2).
as §1
A stimulation pipette (patch pipette with 1-3 MΩ resistance when filled with internal solution) was placed superficially in the stratum radiatum of the CA1 region in approximately […] distance to the pyramidal cell layer. Subthreshold excitatory postsynaptic potentials (EPSPs, 2 7 mV) were evoked by Schaffer collateral stimulation with voltage pulses of 10-80 V (frequency of 0.1 Hz, duration of 200 μs) using a stimulus isolator (Model 2100 Isolated pulse stimulator, Carlsborg, U.S.A.). Resting membrane potentials were between −75 and −65 mV and holding potential was −70 mV. 50 ms current test pulses (leading to 5-10 mV hyperpolarization) were applied to control input and series resistances after every 10th EPSP. EPSPs were combined with APs triggered by short (3 ms) current application of 900 pA via the patch-clamp electrode. EPC-10 amplifiers (HEKA, Germany) were used and signals were filtered at 5 kHz. Patchmaster NEXT software (Version 1.2, HEKA, Germany) was used for data acquisition and experiments were performed at room temperature.
aLTP: Five EPSPs and five postsynaptic APs were paired at 100 Hz with a 5 ms delay (AP after EPSP). Five of these bursts of synchronized EPSP→AP pairs were applied at theta frequency (5 Hz), followed by an interval of 10 sec and 4 more theta blocks, resulting in 125 EPSP/AP pairings.
aLTD: 360 postsynaptic APs were pared with 360 EPSPs with a delay of 20-30 ms between each AP/EPSP pairing at a frequency of 1 Hz. 1 Hz LTD: 600 EPSPs were elicited at a frequency of 1 Hz whilst CA1 pyramidal cell membrane potential was hold at −60 mV.
Long-term plasticity or molecular analyses were assessed as described above after the induction phase of the CDM and the specific treatment.
EPSP measurement: For baseline measurement, the mean amplitudes of 30 consecutive EPSPs before the induction protocol were calculated. 25 min after LTP induction the mean amplitude of 30 consecutive EPSPs was calculated and compared to the baseline of the same measurement. Changes of EPSP amplitudes were expressed as percentages of the baseline measurement and analysed for each experimental group applying a two-tailed Wilcoxon test. The differences between separate experimental groups were assessed using the Mann-Whitney test, not assuming normal distribution. […]

Setting [6] is: R,S-ketamine injected shortly before each swim session in the CDM.

Entries after “also recorded” stand apart in the source; their conditions may differ. Where a name gives a salt, the structure may show the parent alone.

The IC50 is the concentration needed to halve the response being measured.

Sequence of recombinant GluN2D-containing receptors (Q62645 28-1323, other chains not shown): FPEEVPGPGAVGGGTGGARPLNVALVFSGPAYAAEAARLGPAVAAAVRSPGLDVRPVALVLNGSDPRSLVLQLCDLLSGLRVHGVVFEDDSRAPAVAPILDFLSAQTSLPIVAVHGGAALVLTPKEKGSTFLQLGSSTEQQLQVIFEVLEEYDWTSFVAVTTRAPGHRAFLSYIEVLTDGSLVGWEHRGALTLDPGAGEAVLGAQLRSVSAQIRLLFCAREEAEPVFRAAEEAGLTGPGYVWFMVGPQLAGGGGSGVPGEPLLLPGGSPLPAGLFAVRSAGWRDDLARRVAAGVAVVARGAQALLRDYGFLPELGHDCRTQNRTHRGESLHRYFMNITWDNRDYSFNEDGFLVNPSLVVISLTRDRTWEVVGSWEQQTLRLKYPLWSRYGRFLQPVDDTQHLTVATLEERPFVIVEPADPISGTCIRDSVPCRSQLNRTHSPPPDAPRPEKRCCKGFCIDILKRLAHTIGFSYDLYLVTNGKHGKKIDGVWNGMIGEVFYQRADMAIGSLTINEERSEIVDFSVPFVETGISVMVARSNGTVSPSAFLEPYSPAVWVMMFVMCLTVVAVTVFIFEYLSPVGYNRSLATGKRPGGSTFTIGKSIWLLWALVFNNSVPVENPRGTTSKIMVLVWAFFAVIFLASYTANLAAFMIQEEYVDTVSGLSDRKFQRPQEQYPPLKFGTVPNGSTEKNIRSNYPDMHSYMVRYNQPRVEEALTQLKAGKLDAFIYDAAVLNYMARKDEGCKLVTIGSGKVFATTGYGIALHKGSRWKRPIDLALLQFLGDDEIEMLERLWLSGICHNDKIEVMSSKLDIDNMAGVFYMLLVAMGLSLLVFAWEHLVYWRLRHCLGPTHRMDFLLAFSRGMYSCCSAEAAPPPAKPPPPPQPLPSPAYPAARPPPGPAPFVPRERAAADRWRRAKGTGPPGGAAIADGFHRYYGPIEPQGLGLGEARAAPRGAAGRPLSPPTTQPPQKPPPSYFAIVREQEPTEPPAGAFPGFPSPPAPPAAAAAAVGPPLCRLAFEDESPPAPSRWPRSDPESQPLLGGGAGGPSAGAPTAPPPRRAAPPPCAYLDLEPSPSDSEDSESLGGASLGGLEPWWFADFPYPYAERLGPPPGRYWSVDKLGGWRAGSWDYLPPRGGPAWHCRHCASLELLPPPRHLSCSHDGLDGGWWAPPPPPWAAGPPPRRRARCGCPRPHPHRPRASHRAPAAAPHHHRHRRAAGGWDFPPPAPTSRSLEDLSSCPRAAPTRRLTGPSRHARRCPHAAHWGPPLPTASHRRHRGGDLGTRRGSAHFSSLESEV

Consider `CCN(CC)C(=O)Oc1ccc(C(=O)Nc2cccc3cc[nH]c23)cc1` [NAB-14], for which the IC50 in data set [1] is 580 nM. In data set [2], the “EPSP amplitude in the absence of AP bursts” value is given as “neither NAB14 nor diazepam wash-in significantly altered the EPSP amplitude; also recorded: no significant pre/post changes”. In addition, in data set [3], the “amplitude of NMDAR currents in CA1 pyramidal cells” value (“amplitude of NMDAR currents” for short) is “no relevant NMDAR reduction”. The side effects result in data set [4] is reported as “did not show side effects”. Further, the “stress-induced LTP blockade, reversal” value in data set [5] (CDM mice, high dose: 10 mg/kg, 10 μM, 10 mg/kg) is given as “completely; also recorded: fully reversed”; in data set [5] (CDM mice, high dose: 10 mg/kg, 10 μM, listed as NAB, 10 mg/kg) it was “fully rehabilitated LTP inducibility”; in data set [5] (CDM mice, low dose: 5 mg/kg, 5 μM) it was “partially”. The “EPSP slope and decay changes found in CDM” value in data set [5] (CDM mice, previous NAB-14 treatment) is “effectively be reversed; also recorded: completely reversing slope increase and decay changes”.
For the compound `CNC1(c2ccccc2Cl)CCCCC1=O` (centres unmarked) [R,S-ketamine, R,S-Ketamine hydrochloride], the “amplitude of NMDAR currents” value in data set [3] (hydrochloride) is reported as “reduced the amplitude”. For the same compound, the “amplitude of NMDAR currents” value in data set [3] (listed as R,S-Ketamine, hydrochloride) is on record as “significantly blocking NMDAR currents in CA1 cells”. Besides, in data set [5] (CDM mice, R,S-ketamine injection i.p. after CDM induction, hydrochloride), the “stress-induced facilitation of LTD (aLTD, EPSP amplitude min 25 to 30)” value is “fully restored; also recorded: reversed this inducibility”. Further, the “stress-induced blockade of LTP inducibility (aLTP, EPSP amplitude min 25 to 30)” value in data set [5] (CDM mice, single R,S-ketamine injection i.p. after CDM induction, hydrochloride) is recorded as “fully restored; also recorded: completely reestablishing stress-induced changes”. Further, in data set [5] (setting [6]), the “stress-induced aLTD facilitation” value is listed as “weaker effect” and the “stress-induced aLTP blockade” value is “prevented the stress-induced aLTP blockade”.
